From patent US8455435B2, “Remedies for ischemia” (Ludwig-Maximilians-Universitat Munchen, priority 2006, dated 2013)
Values joined by “and” are separate entries in the source; they are usually repeats but may differ in a detail not shown here. Equal entries are not always repeated.

Tests used:
[1] = system: myocardial infarction; test: Survival after myocardial infarction (LAD occlusion), PTH treatment; format: in vivo, C57BL/6 mice; conditions: 4 weeks after myocardial infarction, PTH 80 μg/kg/d s.c.
Protocol: (§1) Myocardial infarction was induced in male C57BL/6 mice 8-12 weeks of age by surgical occlusion of the left anterior descending artery (LAD) through a left anterolateral approach. Mice were anesthetized by intraperitoneal injection of a mixture of 100 mg/kg ketamine (Sigma Chemical Co., St. Louis, Mo.) and 5 mg/kg Xylazine (Sigma), intubated and artificially ventilated by a mouse ventilator (HUGO SACHS, March, Germany) with 200 strokes/min and 200 μl/stroke. Animal care and all experimental procedures were performed in strict accordance to the German and National Institutes of Health animal legislation guidelines and were approved by the local animal care and use committees.
After occlusion of the LAD, mice were divided into the following groups 1) subcutaneous administration of saline daily for 5 days, sacrificed at day 6 (n=10) and day 30 (n=15); 2) administration of rat PTH (1-34) daily for 5 and 14 consecutive days (80 μg/kg/d s.c., Bachem), sacrificed at day 6 (n=9) and day 30 (n=15); 3) sham operated animals sacrificed at day 30 (n=5), and not operated control animals receiving saline (n=6) sacrificed at day 6 and at day 30. All animals received BrdU (50 μg/kg/d) for 5 consecutive days. […]
Results were expressed as mean±S.E.M. For statistical analyses the unpaired Student's t-test was used. Mortality was analyzed by the Kaplan-Meier-method. […]

[2] = system: BrdU and Ki67 positive cells; test: Immunohistochemistry of cell proliferation (BrdU, Ki67) after MI, PTH treatment; format: in vivo, C57BL/6 mice
Protocol: (§2) After occlusion of the LAD, mice were divided into the following groups 1) subcutaneous administration of saline daily for 5 days, sacrificed at day 6 (n=10) and day 30 (n=15); 2) administration of rat PTH (1-34) daily for 5 and 14 consecutive days (80 μg/kg/d s.c., Bachem), sacrificed at day 6 (n=9) and day 30 (n=15); 3) sham operated animals sacrificed at day 30 (n=5), and not operated control animals receiving saline (n=6) sacrificed at day 6 and at day 30. All animals received BrdU ([…]) for 5 consecutive days. BrdU and cytokine treatment were started 12-24 hours after LAD occlusion.
At day 6 (n=10) and day 30 (n=10), hearts were excised. After fixation in 4% phosphate buffered formalin the hearts were cut transversally into 2 mm thick slices and embedded in paraffin. 4 μm thick sections were cut and mounted on positively charged glass slides. Standard histological procedures (hematoxilin/eosin and Masson trichrome) and immunostaining (see below) were performed.
For immunostaining mounted tissue sections were deparaffinized by rinsing 3×5 minutes in xylene followed by 2×5 minutes 100%, 2×5 minutes 96%, and 2×5 minutes 70% ethanol rinses. Endogenous peroxidases were quenched in 7.5% H2O2 in distilled water for 10 minutes. After rinsing in distilled water for 10 minutes and 2×5 minutes in TRIS-Buffer, pH 7.5, the slides were incubated at room temperature for 60 minutes with following primary antibodies: CD45 (rat anti-mouse, BD Pharmingen), ICAM-1 (goat anti-mouse, R&D), CD34 (rat anti-mouse, Linaris), Ki67 (goat anti-mouse, Santa Cruz) or BrdU (mouse monoclonal anti-BrdU, BD Pharmingen). Pre-treatment was performed for 30 minutes (microwave 750 W) using TRS 6 (Dako) for CD45, Glykol (biologo) for CD34, Retrievagen A (BD Pharmingen) for BrdU, and citrate buffer (10 mM, pH 6.0) for Ki67.
For detection of the immunoreaction Avidin-Biotinylated enzyme Comlex-Rat IgG, Avidin-Biotinylated enzyme Comlex-Goat IgG (both from Vector) or rabbit anti-goat IgG (DAKO) were used. Aminoethylcarbazol was used as chromogen (incubation 10 minutes). Thereafter, the slides were rinsed in running water and counterstained with hematoxilin Gill's Formula (Vector). Cover slides were mounted with Kaiser's glycerol gelatine. Doublestaining was performed for CD31 and Ki67 using an Avidin-Biotinylated enzyme Comlex-Goat IgG detection system and diaminobenzidine as chromogen and the APAAP-Rat system and chromogen red (all from Dako), respectively.
Quantitative assessments: a) granulation tissue: the number of BrdU and Ki76 positive nuclei were related to the total number of nuclei quantified in the granulation tissue. b) arterioles: only arterioles with high proliferative activity were enclosed.

[3] = system: SDF-1; test: SDF-1 expression in ischemic myocardium after PTH treatment; format: in vivo, mice; conditions: 48 hours after PTH treatment
[4] = system: CD45/Sca-1 and CD45/CD34 positive stem cells; test: PTH induced migration of CD45+ stem cells to the ischemic heart; format: in vivo, mice; conditions: 48 hours after myocardial ischemia
[5] = system: VEGF-A and VEGF-R1; test: VEGF-A/VEGF-R1 expression in infarct and borderzone after MI, PTH treatment; format: in vivo, mice
Text: FIGS. 18A-18B: Immunohistochemical staining of VEGF-A protein in the granulation tissue at the infarct borderzone and RT-PCR analysis of VEGF-A/VEGF-R1 expression • A) Representative staining of VEGF-A protein (brown) in the granulation tissue of sham operated (left), saline (middle) and PTH treated hearts (right). VEGF-A protein is mainly localized on infiltrated cells in the granulation tissue at the borderzone. • B) Bar graphs representing the relative fold increase of VEGF-A (left) and VEGF-1 receptor (right) mRNA expression of saline treated (n=3, striped bars) and of PTH treated myocardial tissue (n=3-5, black bars) normalized to non infarcted control mice (n=3) 48 hours after myocardial infarction. *p<0.05.

[6] = system: myocardial function; test: Pressure volume relations in vivo (conductance catheter) after MI, PTH treatment; parameters: species or system C57BL/6 mice
Protocol: as §1, §2
For evaluation of pressure-volume relationships in vivo, surviving mice of the group 1) MI day 6 (n=6) and day 30 (n=6), 2) MI+PTH day 6 (n=6) and day 30 (n=6), and 3) sham (n=5) and control (n=6) animals were anesthetized with thiopental (100 mg/kg, i.p.), intubated and ventilated (MiniVent, HUGO SACHS, Freiburg, Germany). After catheterization via the right carotid artery an impedance-micromanometer catheter (Millar Instruments, Houston, Tex.) was introduced into the left ventricle. Raw conductance volumes were corrected for parallel conductance by the hypertonic saline dilution method. For absolute volume measurements, the catheter was calibrated with known volumes of heparin treated mouse blood. Pressure-volume signals were recorded at steady state and during transient preload reduction achieved by vena cava occlusion to obtain values independent of cardiac afterload^45. Data analyses were performed as previously described^44 using PVAN analysis software (HUGO SACHS, March, Germany).

[7] = system: CD31 positive vessels; test: Neovascularization (CD31 positive vessels) in granulation tissue after MI, PTH treatment; format: in vivo, mice; conditions: infarct and borderzone after PTH treatment
Text: C) Representative staining of CD31 positive vessels (left: 100×, right: 400×) in the granulation tissue harboring the borderzone of PTH treated (upper row) and saline treated animals (lower row). […] All sections nuclei (blue) were counterstained with hematoxyline. *p<0.05 saline vs. PTH.

rat PTH (1-34)
survival rate [1]: 60% | survival rate ([1]; listed as rPTH (1-34)): 60.0% | BrdU positive cells within the granulation tissue ([2]; 6 days after MI): 72.1±2.4% | Ki67 and BrdU positive cells within the remote area ([2]; 6 days after MI): less than 1% | Ki67 positive cells within the granulation tissue ([2]; 6 days after MI): 34.8±4.8% | Ki67 positive endothelial cells associated with CD31 positive arterioles ([2]; compared to saline treated animals): high numbers | BrdU positive cells in the periinfarct region ([2]; day 30): 99.1±25.0 /mm^2 | homing factor SDF-1 in the ischemic myocardium [3]: upregulated | migration of CD45/Sca-1 and CD45/CD34 positive stem cells to the heart [4]: enhanced migration | expression of VEGF-A and VEGF-R1 [5]: pronounced expression | maximum LV pressure ([6]; PTH treatment of sham operated animals): 80.3±2.1 mmHg | arterial elastance (Ea) ([6]; day 6 after MI): 6.1±0.5 mmHg/μl and 6.0 mmHg/μl | cardiac output ([6]; day 6 after MI): 5537 µL/min | contractility ([6]; day 6 after MI): 4742±394 mmHg/sec | ejection fraction (EF) ([6]; day 6 after MI): 30% | stroke work ([6]; day 6 after MI): increased | diastolic function (Tau glantz) ([6]; day 6 after MI, vs saline): without significant changes | arterial elastance (Ea) ([6]; day 30 after MI): 7.2±0.5 mmHg/μl and 7.1 mmHg/μl | cardiac output ([6]; day 30 after MI): 3810±205 | diastolic relaxation (Tau Glantz) ([6]; day 30 after MI): 12.0 ± 0.8 ms | ejection fraction (EF) ([6]; day 30 after MI): 29.0±7.1% and 29% | enddiastolic volume (EDV) ([6]; day 30 after MI): 34.4±6.1 | stroke work ([6]; day 30 after MI): 382±59 mmHg×μl | angiogenesis [7]: significantly increased
